Test results reported in BindingDB's records for doi:10.1016/j.bioorg.2017.04.012 (Cairo University, 2017).

How the values were obtained:
[1] = target: T1, Prostaglandin G/H synthase 1 (Ovis aries, UniProt P05979); experiment: COX Inhibitor Screening Assay; details: pH 8; 25 °C
T1 sequence (P05979 whole entry): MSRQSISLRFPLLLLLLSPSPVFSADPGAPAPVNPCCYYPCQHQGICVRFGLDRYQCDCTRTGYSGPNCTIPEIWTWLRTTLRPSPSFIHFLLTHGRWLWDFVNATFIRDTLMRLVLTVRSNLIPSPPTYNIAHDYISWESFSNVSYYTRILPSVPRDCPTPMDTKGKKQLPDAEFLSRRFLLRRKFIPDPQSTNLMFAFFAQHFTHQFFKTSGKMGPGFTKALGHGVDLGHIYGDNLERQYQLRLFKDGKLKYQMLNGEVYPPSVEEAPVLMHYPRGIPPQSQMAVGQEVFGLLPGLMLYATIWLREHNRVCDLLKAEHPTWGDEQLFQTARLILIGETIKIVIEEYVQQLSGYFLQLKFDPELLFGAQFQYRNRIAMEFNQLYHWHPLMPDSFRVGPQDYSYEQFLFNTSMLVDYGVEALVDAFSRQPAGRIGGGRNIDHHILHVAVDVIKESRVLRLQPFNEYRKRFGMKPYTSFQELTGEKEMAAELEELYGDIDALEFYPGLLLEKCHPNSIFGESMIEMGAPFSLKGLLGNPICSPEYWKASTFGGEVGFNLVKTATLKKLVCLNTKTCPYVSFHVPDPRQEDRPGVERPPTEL
Protocol: (§1) Dilute 3 mL of assay buffer concentrate with 27 mL of HPLC - grade water. This final assay buffer (0.1 M Tris-HCl, pH 8) should be used for dilution of heme and COX enzymes prior to assaying. This vial contains a solution of heme in dimethylsulphoxide. Dilute 88 μL of heme with 1.912 mL of diluted assay buffer prior to use. A vial contains a solution of ovine COX-1 and should be kept on ice when thawed. Dilute 200 μL of enzyme with 400 μL of diluted assay buffer and store on ice. A vial contains a solution of ovine COX-2 and should be kept on ice when thawed. Dilute 200 μL of enzyme with 400 μL of diluted assay buffer and store on ice. A vial contains a solution or arachidonic acid in ethanol. […] Use the prepared arachidonic acid solution within 30 min. A 20 μL aliquot will yield a final concentration of 100 μM in the wells. A vial contains 0.1 M potassium hydroxide (KOH). A vial contains a solution of TMPD. Background wells: add 160 μL of assay buffer, and 10 μL of heme to three wells. 100% Initial Activity wells: add 150 μL assay buffer, 10 μL of heme, and 10 μL of enzyme (either COX-1 or COX-2) to three wells. Inhibitor wells: add 150 μL of assay buffer, 10 μL of heme, and10 μL of enzyme (either COX-1 or COX-2) to three wells. Add 10 μL of inhibitor to the inhibitor wells and 10 μL of solvent (methanol, dimethylsulphoxide or ethanol) to the 100% Initial Activity wells and background wells, this process was repeated three times. Carefully shake the plate for a few seconds and incubate for five minutes at 25 °C. Add 20 μL of the colorimetric substratesolution to all the wells that you are using. Add 20 μL of arachidonic acid to all the wells you are using. Carefully shake the plate for few seconds and incubate for five minutes at 25 °C. Read the absorbance at 590 nm using a plate reader.

[2] = target: T2, Prostaglandin G/H synthase 2 (Ovis aries, UniProt P79208); experiment: COX Inhibitor Screening Assay; details: pH 8; 25 °C
T2 sequence (P79208 whole entry): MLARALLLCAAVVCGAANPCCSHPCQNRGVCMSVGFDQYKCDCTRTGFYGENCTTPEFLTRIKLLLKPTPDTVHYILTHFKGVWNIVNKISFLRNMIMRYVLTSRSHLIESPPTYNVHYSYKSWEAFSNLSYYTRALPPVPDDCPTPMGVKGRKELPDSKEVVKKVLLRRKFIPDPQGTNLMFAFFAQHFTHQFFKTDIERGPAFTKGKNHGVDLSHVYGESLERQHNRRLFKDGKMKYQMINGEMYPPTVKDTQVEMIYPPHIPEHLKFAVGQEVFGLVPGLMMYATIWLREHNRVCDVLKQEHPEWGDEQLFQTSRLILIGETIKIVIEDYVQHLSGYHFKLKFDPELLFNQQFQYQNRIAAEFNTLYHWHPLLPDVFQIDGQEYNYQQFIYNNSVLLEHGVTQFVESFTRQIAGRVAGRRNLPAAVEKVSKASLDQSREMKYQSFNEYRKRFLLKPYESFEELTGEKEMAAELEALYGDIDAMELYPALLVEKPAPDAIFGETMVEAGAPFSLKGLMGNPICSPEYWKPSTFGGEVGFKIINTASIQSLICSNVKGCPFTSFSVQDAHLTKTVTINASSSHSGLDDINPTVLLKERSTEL
Protocol: as §1

Q: What does the source list for O=C1OC(c2cccnc2)=N/C1=C\c1cccnc1 [2-(pyridin-3-yl)-4-(pyridin-3-ylmethylene)oxazol-5(4H)-one (IIIg)]?
A: IC50 [1]: 340 nM; IC50 [2]: 75 nM

Q: O=C1NN(c2ccccc2)C(c2cccnc2)=N/C1=C/c1cccnc1 [2-Phenyl-3-(pyridin-3-yl)-5-(pyridin-3-ylmethylene)-1,2-dihydro-1,2,4-triazin-6(5H)-one (IVg)] was tested. Which IC50 [1] did it give?
A: Its IC50 is 84 nM.

Q: What about the IC50 [2] of the same compound?
A: Its IC50 is 14 nM.

Q: With O=C1OC(c2cccnc2)=N/C1=C\c1ccccc1O [4-(2-Hydroxybenzylidene)-2-(pyridin-3-yl)oxazol-5(4H)-one (IIIf)] as the compound, how does the IC50 [1] read?
A: The IC50 was 440 nM.

Q: What about the IC50 [2] of the same compound?
A: Its IC50 is 85 nM.

Q: Which results are given for CN(C)c1ccc(/C=C2/N=C(c3cccnc3)OC2=O)cc1 [4-(4-(Dimethylamino)benzylidene)-2-(pyridin-3-yl)oxazol-5(4H)-one (IIIe)]?
A: IC50 [1]: 80 nM; IC50 [2]: 19 nM

Q: For O=C1OC(c2cccnc2)=N/C1=C/c1ccc(Cl)cc1 [4-(4-Chlorobenzylidene)-2-(pyridin-3-yl)oxazol-5(4H)-one (IIIb)], which IC50 [1] is on record?
A: The IC50 was 450 nM.

Q: What about the IC50 [2] of the same compound?
A: The IC50 was 106 nM.

Q: O=C1OC(c2cccnc2)=N/C1=C/c1ccc(O)cc1 [4-(4-Hydroxybenzylidene)-2-(pyridin-3-yl)oxazol-5(4H)-one (IIIc)] was tested. Which IC50 [1] did it give?
A: Its IC50 is 270 nM.

Q: And the IC50 [2]?
A: The IC50 was 24 nM.

Q: For COc1ccc(/C=C2/N=C(c3cccnc3)OC2=O)cc1 [4-(4-Methoxybenzylidene)-2-(pyridin-3-yl)oxazol-5(4H)-one (IIId)], which IC50 [1] is on record?
A: The IC50 was 210 nM.

Q: What about the IC50 [2] of the same compound?
A: The IC50 was 59 nM.

Q: Which results are given for O=C1OC(c2cccnc2)=N/C1=C\c1ccccc1 [4-Benzylidene-2-(pyridin-3-yl) oxazol-5(4H)-one (IIIa)]?
A: IC50 [1]: 440 nM; IC50 [2]: 77 nM

Q: Which IC50 [1] does the source give for O=C1NN(c2ccccc2)C(c2cccnc2)=N/C1=C/c1ccccc1O [5-(2-Hydroxybenzylidene)-2-phenyl-3-(pyridin-3-yl)-1,2-dihydro-1,2,4-triazin-6(5H)-one (IVf)] here?
A: The IC50 was 85 nM.

Q: And the IC50 [2]?
A: The IC50 was 17 nM.

Q: What does the source list for CN(C)c1ccc(/C=C2/N=C(c3cccnc3)N(c3ccccc3)NC2=O)cc1 [5-(4-(Dimethylamino)benzylidene)-2-phenyl-3-(pyridin-3-yl)-1,2-dihydro-1,2,4-triazin-6(5H)-one (IVe)]?
A: IC50 [1]: 116 nM; IC50 [2]: 19 nM

Q: Which results are given for O=C1NN(c2ccccc2)C(c2cccnc2)=N/C1=C/c1ccc(Cl)cc1 [5-(4-Chlorobenzylidene)-2-phenyl-3-(pyridin-3-yl)-1,2-dihydro-1,2,4-triazin-6(5H)-one (IVb)]?
A: IC50 [1]: 160 nM; IC50 [2]: 34 nM

Q: How did the IC50 [1] turn out when O=C1NN(c2ccccc2)C(c2cccnc2)=N/C1=C/c1ccc(O)cc1 [5-(4-Hydroxybenzylidene)-2-phenyl-3-(pyridin-3-yl)-1,2-dihydro-1,2,4-triazin-6(5H)-one (IVc)] was run?
A: Its IC50 is 96 nM.

Q: What about the IC50 [2] of the same compound?
A: The IC50 was 19 nM.

Q: How did the IC50 [1] turn out when COc1ccc(/C=C2/N=C(c3cccnc3)N(c3ccccc3)NC2=O)cc1 [5-(4-Methoxybenzylidene)-2-phenyl-3-(pyridin-3-yl)-1,2-dihydro-1,2,4-triazin-6(5H)-one (IVd)] was run?
A: Its IC50 is 108 nM.

Q: O=C1NN(c2ccccc2)C(c2cccnc2)=N/C1=C/c1ccccc1 [5-Benzylidene-2-phenyl-3-(pyridin-3-yl)-1,2-dihydro-1,2,4-triazin-6(5H)-one (IVa)] was tested. Which IC50 [1] did it give?
A: Its IC50 is 150 nM.

Q: What about the IC50 [2] of the same compound?
A: The IC50 was 35 nM.
